Assay [1] concerns the target estrogen receptor (ER) (Homo sapiens (Human), UniProt P03372). In words: Inhibition of the binding of estrogen (E) to estrogen receptor (ER), MCF-7/ERE-luciferase reporter cells. Type of assay: cell-based. The note with it: MCF-7/ERE-luciferase cells, 0.1 nM estradiol, 24 hours; read-out: IC50 value of inhibition effect on the binding of E to ER. The protocol: The inhibition effect of the compounds on the binding of E to ER in vitro was tested by the following method.
The object of this experiment was to determine the inhibition effect of the compounds on the binding of E to ER, and the in vitro activity of the compounds was evaluated according to the IC50 value.
MCF-7/ERE-luciferase cells were inoculated into the MEM medium (hyclone, SH30024.01B) containing 10% charcoal stripped FBS (Moregate, FBSF), 1% sodium pyruvate (Sigma, Cat. No. S8636), 1% nonessential amino acids (Sigma, Cat. No. M7145) and 500 μg/ml G418 in a 96-well plate with a density of 30,000 cells/well, and the cells were incubated under the conditions of 37° C. and 5% CO2. […] After incubation for 24 hours, the medium was removed, then 0.1 nM estradiol (Sigma, Cat. No. E2758) and 10 μl of the drug diluted with the medium were added to each well, and the control group was added with DMSO. The plate was gently shaken and incubated in a incubator at 37° C., 5% CO2. After 24 hours, the cell culture medium was discarded.
The inhibition effect of the compounds of the present invention on the binding of E to ER was tested by the experiment described above.
In general terms: In a reporter assay the amount or activity of a reporter protein is the signal.

Assay [2] relates to MCF7 cells. Put plainly: Inhibition of the proliferation of MCF7 cells (Cell Titer-Glo). Type of assay: cell-based. The note with it: Homo sapiens, MCF-7 cells, 72 hours, read-out: IC50 value of inhibition effect on the proliferation of MCF7 cells. How it is done: The object of this experiment was to determine the inhibition effect of the compounds on the proliferation activity of MCF7 cells, and the in vitro activity of the compounds was evaluated according to the IC50 value.
After incubation for 24 hours, the medium was removed, then 90 μl of the medium containing 2% FBS and 10 μl of the drug were added to each well, 10 μl of DMSO were added to the control group, and the blank group contained only 100 μl medium containing 2% FBS. The plate was gently shaken and incubated in a incubator at 37° C., 5% CO2. After 72 hours, 50 μl of mixed Cell Titer-Glo (Promega, Cat. No. G7571) were added to each well. The plate was shaken until the ingredients were well mixed, and placed at room temperature for 10 minutes, then the chemiluminescence signal value was determined.
The values of the chemiluminescence signals vs the logarithmic concentrations of the compounds were plotted using Graghpad Prism to obtain IC50 values.
(In general: Cellular ATP, detected with luciferase, serves as a proxy for viable cell number.)

Chain of estrogen receptor (ER) (P03372 whole entry): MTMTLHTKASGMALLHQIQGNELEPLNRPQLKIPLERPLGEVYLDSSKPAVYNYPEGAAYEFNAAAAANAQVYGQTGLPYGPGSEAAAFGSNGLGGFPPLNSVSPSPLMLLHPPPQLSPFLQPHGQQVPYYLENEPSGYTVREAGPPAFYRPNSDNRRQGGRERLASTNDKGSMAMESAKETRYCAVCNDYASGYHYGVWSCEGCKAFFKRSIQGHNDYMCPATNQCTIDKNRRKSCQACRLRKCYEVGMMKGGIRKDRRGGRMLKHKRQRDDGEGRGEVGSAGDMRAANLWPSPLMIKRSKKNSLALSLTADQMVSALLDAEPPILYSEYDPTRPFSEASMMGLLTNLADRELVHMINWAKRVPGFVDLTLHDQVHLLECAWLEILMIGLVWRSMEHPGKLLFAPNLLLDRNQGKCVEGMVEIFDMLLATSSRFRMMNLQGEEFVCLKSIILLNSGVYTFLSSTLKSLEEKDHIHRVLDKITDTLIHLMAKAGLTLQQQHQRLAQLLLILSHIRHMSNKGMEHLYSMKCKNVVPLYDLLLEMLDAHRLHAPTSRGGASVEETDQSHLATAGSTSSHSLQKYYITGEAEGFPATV

For `CC1Cc2cc(NC(=O)OC(C)(C)C)ccc2C(c2c(F)cc(/C=C/C(=O)O)cc2F)N1CC(C)(C)F` [Example 31, (E)-3-(4-((1S,3R/1R,3S)-6-((tert-butoxycarbonyl)amino)-2-(2-fluoro-2-methylpropyl)-3-methyl-1,2,3,4-tetrahydroisoquinolin-1-yl)-3,5-difluorophenyl)acrylic acid], in assay [1], the IC50 came to 84.1 nM. Turning to `CC1Cc2cc(OCC#N)ccc2C(c2c(F)cc(/C=C/C(=O)O)cc2F)N1CC(C)(C)F` [Example 33, (E)-3-(4-((1S,3R/1R,3S)-6-(cyanomethoxy)-2-(2-fluoro-2-methylpropyl)-3-methyl-1,2,3,4-tetrahydroisoquinolin-1-yl)-3,5-difluorophenyl)acrylic acid], the results for the IC50 in assay [2] and in assay [1] were 7.78 nM and 37.7 nM, respectively. For the compound `CC1Cc2cc(C3CC3)ccc2C(c2c(F)cc(/C=C/C(=O)O)cc2F)N1CC(C)(C)F` [Example 34, (E)-3-(4-((1S,3R/1R,3S)-6-cyclopropyl-2-(2-fluoro-2-methylpropyl)-3-methyl-1,2,3,4-tetrahydroisoquinolin-1-yl)-3,5-difluorophenyl)acrylic acid], the IC50 in assay [1] was found to be 18.4 nM. Still for that read-out and setting: in the case of `CC1Cc2cc(OC3CCOCC3)ccc2C(c2c(F)cc(/C=C/C(=O)O)cc2F)N1CC(C)(C)F` [Example 36, (E)-3-(3,5-difluoro-4-((1S,3R/1R,3S)-2-(2-fluoro-2-methylpropyl)-3-methyl-6-((tetrahydro-2H-pyran-4-yl)oxy)-1,2,3,4-tetrahydroisoquinolin-1-yl)phenyl)acrylic acid] it was 24.9 nM. As for `CC1Cc2cc(O[C@H]3CCOC3)ccc2C(c2c(F)cc(/C=C/C(=O)O)cc2F)N1CC(C)(C)F` (stereo partly drawn) [Example 37, (E)-3-(3,5-difluoro-4-((1S,3R/1R,3S)-2-(2-fluoro-2-methylpropyl)-3-methyl-6-(((S)-tetrahydrofuran-3-yl)oxy)-1,2,3,4-tetrahydroisoquinolin-1-yl)phenyl)acrylic acid], the results for the IC50 in assay [2] and in assay [1] were 4.79 nM and 13.7 nM, respectively.

`CC1CN(c2ccc3c(c2)CC(C)N(CC(C)(C)F)C3c2c(F)cc(/C=C/C(=O)O)cc2F)CCO1` [Example 38, (E)-3-(3,5-difluoro-4-((1S,3R/1R,3S)-2-(2-fluoro-2-methylpropyl)-3-methyl-6-(2-methylmorpholino)-1,2,3,4-tetrahydroisoquinolin-1-yl)phenyl)acrylic acid]: the IC50 in assay [2] worked out at 1.34 nM; in assay [1], 4.42 nM. Taken in the same sequence, the figures for `CC1Cc2cc(N3CCN(C)C(=O)C3)ccc2C(c2c(F)cc(/C=C/C(=O)O)cc2F)N1CC(C)(C)F` [Example 39, (E)-3-(3,5-difluoro-4-((1S,3R/1R,3S)-2-(2-fluoro-2-methylpropyl)-3-methyl-6-(4-methyl-3-oxopiperazin-1-yl)-1,2,3,4-tetrahydroisoquinolin-1-yl)phenyl)acrylic acid] were 2.34 nM and 14.2 nM. Consider `CC1Cc2cc(N3Cc4ccncc4C3)ccc2C(c2c(F)cc(/C=C/C(=O)O)cc2F)N1CC(C)(C)F` [Example 42, (E)-3-(3,5-difluoro-4-((1S,3R/1R,3S)-2-(2-fluoro-2-methylpropyl)-3-methyl-6-(1H-pyrrolo[3,4-c]pyridin-2(3H)-yl)-1,2,3,4-tetrahydroisoquinolin-1-yl)phenyl)acrylic acid], for which the IC50 in assay [2] is 5 nM; in assay [1], 8.1 nM. Taken in the same sequence, the figures for `Cc1ccc(-c2ccc3c(c2)CC(C)N(CC(C)(C)F)C3c2c(F)cc(/C=C/C(=O)O)cc2F)s1` [Example 43, (E)-3-(3,5-difluoro-4-((1S,3R/1R,3S)-2-(2-fluoro-2-methylpropyl)-3-methyl-6-(5-methylthiophen-2-yl)-1,2,3,4-tetrahydroisoquinolin-1-yl)phenyl)acrylic acid] were 2.66 nM and 4.98 nM. Taken in the same sequence, the figures for `CC1Cc2cc(-c3cnn(C(C)C)c3)ccc2C(c2c(F)cc(/C=C/C(=O)O)cc2F)N1CC(C)(C)F` [Example 50, (E)-3-(3,5-difluoro-4-((1S,3R/1R,3S)-2-(2-fluoro-2-methylpropyl)-6-(1-isopropyl-1H-pyrazol-4-yl)-3-methyl-1,2,3,4-tetrahydroisoquinolin-1-yl)phenyl)acrylic acid] were 4.86 nM and 9.7 nM. With `CC(C)Cn1cc(-c2ccc3c(c2)CC(C)N(CC(C)(C)F)C3c2c(F)cc(/C=C/C(=O)O)cc2F)cn1` [Example 52, (E)-3-(3,5-difluoro-4-((1S,3R/1R,3S)-2-(2-fluoro-2-methylpropyl)-6-(1-isobutyl-1H-pyrazol-4-yl)-3-methyl-1,2,3,4-tetrahydroisoquinolin-1-yl)phenyl)acrylic acid], the IC50 in assay [1] turned out to be 26 nM. For `CC1Cc2cc(-c3ncco3)ccc2C(c2c(F)cc(/C=C/C(=O)O)cc2F)N1CC(C)(C)F` [Example 54, (E)-3-(3,5-difluoro-4-((1S,3R/1R,3S)-2-(2-fluoro-2-methylpropyl)-3-methyl-6-(oxazol-2-yl)-1,2,3,4-tetrahydroisoquinolin-1-yl)phenyl)acrylic acid], the figures for the IC50 in assay [2] and in assay [1] were 3.67 nM and 9.41 nM, respectively.

For `CC1Cc2cc(-c3cnc4ccccc4c3)ccc2C(c2c(F)cc(/C=C/C(=O)O)cc2F)N1CC(C)(C)F` [Example 62, (E)-3-(3,5-difluoro-4-((1S,3R/1R,3S)-2-(2-fluoro-2-methylpropyl)-3-methyl-6-(quinolin-3-yl)-1,2,3,4-tetrahydroisoquinolin-1-yl)phenyl)acrylic acid], the IC50 amounted to 16.1 nM in assay [2] and 13.6 nM in assay [1]. Taken in the same sequence, the figures for `CC1Cc2cc(-c3ccc4ncccc4c3)ccc2C(c2c(F)cc(/C=C/C(=O)O)cc2F)N1CC(C)(C)F` [Example 63, (E)-3-(3,5-difluoro-4-((1S,3R/1R,3S)-2-(2-fluoro-2-methylpropyl)-3-methyl-6-(quinolin-6-yl)-1,2,3,4-tetrahydroisoquinolin-1-yl)phenyl)acrylic acid] were 0.58 nM and 1.7 nM. The like results for `Cc1nc2ccc(-c3ccc4c(c3)CC(C)N(CC(C)(C)F)C4c3c(F)cc(/C=C/C(=O)O)cc3F)cc2s1` [Example 66, (E)-3-(3,5-difluoro-4-((1S,3R/1R,3S)-2-(2-fluoro-2-methylpropyl)-3-methyl-6-(2-methylbenzo[d]thiazol-6-yl)-1,2,3,4-tetrahydroisoquinolin-1-yl)phenyl)acrylic acid] were, in that order, 1.62 nM and 3.25 nM. As to `C[C@H]1Cc2c(oc3ccccc23)[C@H](c2c(F)cc(/C=C/C(=O)O)cc2F)N1CC(C)(C)F` [Example 69, (E)-3-(3,5-difluoro-4-((1S,3S)-2-(2-fluoro-2-methylpropyl)-3-methyl-1,2,3,4-tetrahydrobenzofuro[2,3-c]pyridin-1-yl)phenyl)acrylic acid], the results for the IC50 in assay [2] and in assay [1] were 6.41 nM and 34 nM, respectively. With `C[C@H]1Cc2cc3c(cc2[C@H](c2c(F)cc(/C=C/C(=O)O)cc2F)N1CC(C)(C)F)OCO3` [Example 72, (E)-3-(3,5-difluoro-4-((5R,7S)-6-(2-fluoro-2-methylpropyl)-7-methyl-5,6,7,8-tetrahydro-[1,3]dioxolo[4,5-g]isoquinolin-5-yl)phenyl)acrylic acid], the IC50 in assay [1] stood at 40.9 nM. Take `CC1Cc2cc(C#N)ccc2C(c2c(F)cc(/C=C/C(=O)O)cc2F)N1CC(C)(C)F` [Example 93, (E)-3-(4-((1S,3R/1R,3S)-6-cyano-2-(2-fluoro-2-methylpropyl)-3-methyl-1,2,3,4-tetrahydroisoquinolin-1-yl)-3,5-difluorophenyl)acrylic acid]: the IC50 in assay [1] is 12.9 nM. The same measure, in the same setting: in the case of `C[C@H]1Cc2c(ccc3[nH]ncc23)[C@H](c2c(F)cc(/C=C/C(=O)O)cc2F)N1CC(C)(C)F` [Example 95, (E)-3-(3,5-difluoro-4-((6R,8S)-7-(2-fluoro-2-methylpropyl)-8-methyl-6,7,8,9-tetrahydro-3H-pyrazolo[4,3-f]isoquinolin-6-yl)phenyl)acrylic acid] it was 29.8 nM; in that of `CCn1cc(-c2ccc3oc4c(c3c2)C[C@H](C)N(CC(C)(C)F)[C@H]4c2c(F)cc(/C=C/C(=O)O)cc2F)cn1` [Example 96, (E)-3-(4-((1S,3S)-6-(1-ethyl-1H-pyrazol-4-yl)-2-(2-fluoro-2-methylpropyl)-3-methyl-1,2,3,4-tetrahydrobenzofuro[2,3-c]pyridin-1-yl)-3,5-difluorophenyl)acrylic acid], 31.2 nM. On to `C[C@H]1Cc2cc(-c3ccc4cnccc4c3)ccc2[C@H](c2c(F)cc(/C=C/C(=O)O)cc2F)N1CC(C)(C)F` [Example 99, (E)-3-(3,5-difluoro-4-((1R,3S)-2-(2-fluoro-2-methylpropyl)-3-methyl-1,2,3,4-tetrahydro-[6,6′-biisoquinolin]-1-yl)phenyl)acrylic acid], for which, in assay [1], the IC50 came to 77.5 nM.

For the origin of these results see US10087191B2, “Piperidine derivative and preparation method and pharmaceutical use thereof” (Jiangsu Hengrui Medicine Co., Ltd., priority 2015, dated 2018).
